In US8697868B2, “8-[3-amino-piperidin-1-yl]-xanthines, their preparation and their use as pharmaceutical compositions” (Boehringer Ingelheim International GmbH, priority 2004, dated 2014):
pIC50: −log10 of the molar value.

Columns and labels:
DPP-IV = DPP-IV (Homo sapiens (Human), UniProt P27487); experiment: DPP-IV assay with Caco-2 cell extract as DPP IV source; type: biochemical; details: extract of human colon carcinoma cell line Caco-2 as DPP IV source; AFC substrate 100 μM; 60 minutes at ambient temperature; read-out: DPP IV inhibition IC50
Description: The differentiation of the cells in order to induce the DPP-IV expression was carried out in accordance with the description by Reiher et al. in an article entitled “Increased expression of intestinal cell line Caco-2” that appeared in Proc. Natl. Acad. Sci. Vol. 90, pp. 5757-5761 (1993). The cell extract was obtained from cells solubilized in a buffer (10 mM Tris HCl, 0.15 M NaCl, 0.04 t.i.u. aprotinin, 0.5% Nonidet-P40, pH 8.0) by centrifugation at 35,000 g for 30 minutes at 4° C. (to remove cell debris).
The DPP-IV assay was carried out as follows:
50 μl of substrate solution (AFC; AFC is amido-4-trifluoromethylcoumarin), final concentration 100 μM, was placed in black microtitre plates. 20 μl of assay buffer (final concentrations 50 mM Tris HCl pH 7.8, 50 mM NaCl, 1% DMSO) was pipetted therein. The reaction was started by the addition of 30 μl of solubilized Caco-2 protein (final concentration 0.14 μg of protein per well). The test substances under investigation were typically added prediluted to 20 μl, while the volume of assay buffer was then reduced accordingly. The reaction was carried out at ambient temperature, the incubation period was 60 minutes. Then the fluorescence was measured in a Victor 1420 Multilabel Counter, with the excitation wavelength at 405 nm and the emission wavelength at 535 nm. Dummy values (corresponding to 0% activity) were obtained in mixtures with no Caco-2 protein (volume replaced by assay buffer), control values (corresponding to 100% activity) were obtained in mixtures without any added substance. The potency of the test substances in question, expressed as IC50 values, were calculated from dosage/activity curves consisting of 11 measured points in each case.

rats = experiment: Tolerability after oral administration in rats; type: in vivo; details: oral administration of 10 mg/kg

Chain of DPP-IV (P27487 whole entry): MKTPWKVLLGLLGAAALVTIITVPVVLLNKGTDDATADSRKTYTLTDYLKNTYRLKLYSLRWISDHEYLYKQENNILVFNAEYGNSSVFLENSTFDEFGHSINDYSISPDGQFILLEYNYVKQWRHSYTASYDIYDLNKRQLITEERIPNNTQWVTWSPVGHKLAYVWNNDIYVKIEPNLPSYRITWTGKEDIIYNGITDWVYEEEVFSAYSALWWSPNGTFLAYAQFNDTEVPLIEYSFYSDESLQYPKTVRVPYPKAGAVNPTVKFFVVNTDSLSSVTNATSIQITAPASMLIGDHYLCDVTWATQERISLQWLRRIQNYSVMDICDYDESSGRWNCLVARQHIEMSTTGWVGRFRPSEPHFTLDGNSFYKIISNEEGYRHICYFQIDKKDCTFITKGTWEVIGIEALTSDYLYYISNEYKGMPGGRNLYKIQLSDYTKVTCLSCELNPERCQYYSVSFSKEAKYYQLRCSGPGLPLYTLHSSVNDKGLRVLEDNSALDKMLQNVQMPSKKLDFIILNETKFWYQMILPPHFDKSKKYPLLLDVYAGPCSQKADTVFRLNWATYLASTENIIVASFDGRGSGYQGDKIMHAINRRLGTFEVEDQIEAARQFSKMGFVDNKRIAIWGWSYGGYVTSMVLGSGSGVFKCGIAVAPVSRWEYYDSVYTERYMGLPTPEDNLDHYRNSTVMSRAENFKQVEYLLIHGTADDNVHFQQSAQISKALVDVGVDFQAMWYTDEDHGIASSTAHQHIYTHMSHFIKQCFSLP

Structure (SMILES)	pIC50 (DPP-IV)	melting point [°C]	toxic side effects (rats)
CC#CCn1c(N2CCC[C@@H](N)C2)nc2c1c(=O)n(Cc1nccc(-c3ccccc3)n1)c(=O)n2C [1(31), 1-[(4-phenyl-pyrimidin-2-yl)methyl]-3-methyl-7-(2-butyn-1-yl)-8-((R)-3-amino-piperidin-1-yl)-xanthine]	8.52	–	–
CC#CCn1c(N2CCC[C@@H](N)C2)nc2c1c(=O)n(Cc1ccc3nc(C)c(C)nc3c1)c(=O)n2C [1(12), 1-[(2,3-dimethyl-quinoxalin-6-yl)methyl]-3-methyl-7-(2-butyn-1-yl)-8-((R)-3-amino-piperidin-1-yl)-xanthine]	8.70	–	–
CC#CCn1c(N2CCC[C@@H](N)C2)nc2c1c(=O)n(CC(=O)c1ccccc1-c1cccnc1)c(=O)n2C [1(21), 1-{2-oxo-2-[2-(pyridin-3-yl)-phenyl]-ethyl}-3-methyl-7-(2-butyn-1-yl)-8-((R)-3-amino-piperidin-1-yl)-xanthine]	8.70	–	–
CC#CCn1c(N2CCC[C@@H](N)C2)nc2c1c(=O)n(Cc1ccc3cncnc3c1)c(=O)n2C [1(38), 1-[(quinazolin-7-yl)methyl]-3-methyl-7-(2-butyn-1-yl)-8-((R)-3-amino-piperidin-1-yl)-xanthine]	9.00	–	–
CC#CCn1c(N2CCC[C@@H](N)C2)nc2c1c(=O)n(CC(=O)c1cccc(OC3CC3)c1)c(=O)n2C [1(7), 1-[2-(3-cyclopropyloxy-phenyl)-2-oxo-ethyl]-3-methyl-7-(2-butyn-1-yl)-8-((R)-3-amino-piperidin-1-yl)-xanthine]	8.30	–	–
CC#CCn1c(N2CCC[C@@H](N)C2)nc2c1c(=O)n(Cc1nc(-c3ccccc3)nc3ccccc13)c(=O)n2C [1(4), 1-[(2-phenyl-quinazolin-4-yl)methyl]-3-methyl-7-(2-butyn-1-yl)-8-((R)-3-amino-piperidin-1-yl)-xanthine]	8.05	–	–
CC#CCn1c(N2CCC[C@@H](N)C2)nc2c1c(=O)n(Cc1nc(C)cc(C)n1)c(=O)n2C [Example 1(82), 1-[(4,6-dimethyl-pyrimidin-2-yl)methyl]-3-methyl-7-(2-butyn-1-yl)-8-((R)-3-amino-piperidin-1-yl)-xanthine]	–	202 to 204	–
CC#CCn1c(N2CCCC(N)C2)nc2c1c(=O)n(Cc1nc(Nc3ccccc3)c3ccccc3n1)c(=O)n2C (stereo not shown) [Example 1, 1-[(4-phenylamino-quinazolin-2-yl)methyl]-3-methyl-7-(2-butyn-1-yl)-8-(3-amino-piperidin-1-yl)-xanthine]	8.22	–	–
CC#CCn1c(N2CCC[C@@H](N)C2)nc2c1c(=O)n(Cc1cc(C#N)cc3ccccc13)c(=O)n2C [1(3), 1-[(3-cyano-naphthalen-1-yl)methyl]-3-methyl-7-(2-butyn-1-yl)-8-((R)-3-amino-piperidin-1-yl)-xanthine]	8.22	–	–
CC#CCn1c(N2CCC[C@@H](N)C2)nc2c1c(=O)n(Cc1nc3ccccc3cc1C#N)c(=O)n2C [Example 1(30), 1-[(3-cyano-quinolin-2-yl)methyl]-3-methyl-7-(2-butyn-1-yl)-8-((R)-3-amino-piperidin-1-yl)-xanthine]	8.70	–	no toxic side effects could be detected

Further lines, with some results ahead:

pIC50 (DPP-IV)	melting point [°C]	Structure (SMILES)	toxic side effects (rats)
8.70	–	CC#CCn1c(N2CCC[C@@H](N)C2)nc2c1c(=O)n(Cc1cc(C#N)c3ccccc3n1)c(=O)n2C [1(6), 1-[(4-cyano-quinolin-2-yl)methyl]-3-methyl-7-(2-butyn-1-yl)-8-((R)-3-amino-piperidin-1-yl)-xanthine]	–
8.70	–	CC#CCn1c(N2CCC[C@@H](N)C2)nc2c1c(=O)n(Cc1ccccc1C#N)c(=O)n2C [1(39), 1-(2-cyano-benzyl)-3-methyl-7-(2-butyn-1-yl)-8-((R)-3-amino-piperidin-1-yl)-xanthine]	–
–	166	CC#CCn1c(N2CCC[C@@H](N)C2)nc2c1c(=O)n(Cc1cnccc1C#N)c(=O)n2C [Example 1(102), 1-[(4-cyano-pyridin-3-yl)methyl]-3-methyl-7-(2-butyn-1-yl)-8-((R)-3-amino-piperidin-1-yl)-xanthine]	–
–	207 to 209	CC#CCn1c(N2CCC[C@@H](N)C2)nc2c1c(=O)n(Cc1ccccc1)c(=O)n2C [Example 1(43), 1-benzyl-3-methyl-7-(2-butyn-1-yl)-8-((R)-3-amino-piperidin-1-yl)-xanthine]	–
8.70	–	CC#CCn1c(N2CCC[C@@H](N)C2)nc2c1c(=O)n(Cc1cnc3cccnc3c1)c(=O)n2C [1(26), 1-[([1,5]naphthyridin-3-yl)methyl]-3-methyl-7-(2-butyn-1-yl)-8-((R)-3-amino-piperidin-1-yl)-xanthine]	–
